This experiment has as its system T1, PIM-1 or PIM-2.
T1 construct: fused on or other part: C-terminal histidine tag (PIM-1 enzyme); N-terminal histidine tag (PIM-2 enzyme)
In words: PIM-1 / PIM-2 biochemical assay (ADP Hunter assay kit). The note with it: tested in either the PIM-1 or the PIM-2 biochemical assay (as appropriate); ATP 100 μM. Set-up: species or system human.
Text: The biochemical assay to measure PIM-1 activity relies on the ADP Hunter assay kit (DiscoveRx Corp., Cat. # 90-0077), that determines the amount of ADP as direct product of the kinase enzyme activity.
The enzyme has been expressed and purified in-house as a recombinant human protein with a C-terminal histidine tag. The protein is active and stable.
(§1) Assay conditions were as indicated by the kit manufacturers with the following adaptations for the kinase activity step: • Kinase assay buffer and assay volume stay as recommended (15 mM HEPES, pH 7.4, 20 mM NaCl, 1 mM EGTA, 0.02% Tween 20, 10 mM MgCl2 and 0.1 mg/ml bovine γ-globulins/75 μl assay volume) • Incubation time and temperature: 60 min at 30° C. • PIM-1 concentration: 50 pg/μl • ATP concentration: 100 μM • PIM-1 substrate peptide: PIMtide (ARKRRRHPSGPPTA) • Peptide concentration: 60 μM • Positive control for kinase activity inhibition: 1-10 μM Staurosporine • DMSO concentration have to stay below 2% during the kinase reaction
Assays were performed in either 96 or 384-well plates. The final outcome of the coupled reactions provided by the kit is the release of the fluorescent product Resorufin and has been measured with a multilabel HTS counter VICTOR V (PerkinElmer) using an excitation filter at 544 nm and an emission filter at 580 nm.
The biochemical assay to measure PIM-2 activity relies on the ADP Hunter assay kit (DiscoveRx Corp., Cat. # 90-0077), that determines the amount of ADP as direct product of the kinase enzyme activity.
The enzyme has been expressed and purified in-house as a recombinant human protein with a N-terminal histidine tag. The protein is active and stable.
as §1, with “mg/ml bovine γ-globulins/20 μl assay” for “mg/ml bovine γ-globulins/75 μl assay”, “and temperature: 30 min at” for “and temperature: 60 min at”, “C. • PIM-2 concentration: 350” for “C. • PIM-1 concentration: 50”, “PIM-2 concentration: 350 pg/μl •” for “PIM-1 concentration: 50 pg/μl •”, “Peptide concentration: 100 μM •” for “Peptide concentration: 60 μM •”

Each structure is given as a SMILES string.

One may read the IC50 as the point on the concentration scale where inhibition reaches its midpoint. A lower IC50 goes with inhibition by little substance. On to `O=C(Nc1cccnc1)c1cnc2ccc(NCc3ccc(Cl)c(Cl)c3)nn12` [Example 23, 6-(3,4-Dichloro-benzylamino)-imidazo[1,2-b]pyridazine-3-carboxylic acid pyridin-3-yl-amide], for which half-maximal inhibition (IC50) required 130 nM.
Under `O=C(Nc1ccc(O)cc1)c1cnc2ccc(NCc3ccc(F)cc3)nn12` [Example 32, 6-(4-Fluoro-benzylamino)-imidazo[1,2-b]pyridazine-3-carboxylic acid (4-hydroxy-phenyl)-amide] stands 70 nM; under `O=C(Nc1ccccc1)c1cnc2ccc(-c3ccoc3)nn12` [Example 47, 6-Furan-3-yl-imidazo[1,2-b]pyridazine-3-carboxylic acid phenylamide], 470 nM; under `COc1ccc(C(=O)Nc2cnc3ccc(-n4ccnc4)nn23)cc1` [Example 100, N-(6-Imidazol-1-yl-imidazo[1,2-b]pyridazin-3-yl)-4-methoxy-benzamide], 19100 nM.
As for `COc1ccc(CNc2cc(C)c3ncc(C(=O)Nc4cccc(C(=O)O)c4)n3n2)cc1` [Example 65, 3-{[6-(4-Methoxy-benzylamino)-8-methyl-imidazo[1,2-b]pyridazine-3-carbonyl]-amino}-benzoic acid], it took 19300 nM to reach half-maximal inhibition (IC50).
For the compound `Cc1cc2ncc(C#Cc3ccccc3)n2nc1NCc1ccc(Cl)c(Cl)c1` [Example 70, (3,4-Dichloro-benzyl)-(7-methyl-3-phenylethynyl-imidazo[1,2-b]pyridazin-6-yl)-amine], half-maximal inhibition (IC50) required 2220 nM.
With `COc1ccc(-c2ccc3ncc(C(=O)Nc4ccccc4)n3n2)cc1` [Example 46, 6-(4-Methoxy-phenyl)-imidazo[1,2-b]pyridazine-3-carboxylic acid phenyl-amide], the IC50 is 380 nM.
The result for `Cc1cc2ncc(C(=O)Nc3ccccc3)n2nc1NCc1ccc(Cl)c(Cl)c1` [Example 55, 6-(3,4-Dichloro-benzylamino)-7-methyl-imidazo[1,2-b]pyridazine-3-carboxylic acid phenylamide] reads 70 nM.
Turning to `Cc1cc(NCc2ccc(Cl)c(Cl)c2)nn2c(C(=O)Nc3ccccc3)cnc12` [Example 54, 6-(3,4-Dichloro-benzylamino)-8-methyl-imidazo[1,2-b]pyridazine-3-carboxylic acid phenylamide], the IC50 was 70 nM. This lies in the double-digit nanomolar range.
`COc1ccc(C(=O)Nc2cnc3ccc(NCc4ccc(F)cc4)nn23)cc1` [Example 91, N-[6-(4-Fluoro-benzylamino)-imidazo[1,2-b]pyridazin-3-yl]-4-methoxy-benzamide] gave an IC50 of 310 nM.
Compound `O=S(=O)(Nc1cnc2ccc(-c3ccccc3)nn12)c1ccccc1` [Example 86, N-(6-Phenyl-imidazo[1,2-b]pyridazin-3-yl)-benzenesulfonamide] showed an IC50 of 14500 nM.
Regarding `O=C(Nc1ccccc1)c1cnc2ccc(Nc3ccccc3)nn12` [Example 39, 6-Phenylamino-imidazo[1,2-b]pyridazine-3-carboxylic acid phenylamide], the IC50 came out at 40 nM.
`COc1ccc(NC(=O)c2cnc3ccc(NCc4ccc(S(N)(=O)=O)cc4)nn23)cn1` [Example 27]: the IC50 stood at 1140 nM. This IC50 lies about 28-fold higher than the previous one.
Regarding `O=C(Nc1ccc2[nH]ccc2c1)c1cnc2ccc(NCc3ccc(Cl)c(Cl)c3)nn12` [Example 17, 6-(3,4-Dichloro-benzylamino)-imidazo[1,2-b]pyridazine-3-carboxylic acid (1H-indol-5-yl)-amide], the IC50 came to 430 nM. This IC50 lies about 2.7-fold lower than the previous one.
As for `O=C(Nc1ccccc1)c1cnc2ccc(-n3ccnc3)nn12` [Example 38, 6-Imidazol-1-yl-imidazo[1,2-b]pyridazine-3-carboxylic acid phenylamide], the IC50 is 4630 nM.
The result for `O=C(Nc1ccccc1)c1cnc2cc(C3CCCC3)c(NCc3ccc(F)cc3)nn12` [Example 68, 7-Cyclopentyl-6-(4-fluoro-benzylamino)-imidazo[1,2-b]pyridazine-3-carboxylic acid phenylamide] reads 80 nM.
In turn, `O=C(Nc1cnc2ccc(-n3ccnc3)nn12)c1ccc(O)cc1` [Example 103, 4-Hydroxy-N-(6-imidazol-1-yl-imidazo[1,2-b]pyridazin-3-yl)-benzamide] had an IC50 of 14400 nM.
Turning to `O=C(Nc1cnc2ccc(NCc3ccc(F)cc3)nn12)c1cccc(O)c1` [Example 102, N-[6-(4-Fluoro-benzylamino)-imidazo[1,2-b]pyridazin-3-yl]-3-hydroxy-benzamide], 2250 nM corresponded to half-maximal inhibition (IC50).
Under `O=C(Nc1ccccc1)c1cnc2ccc(Oc3ccccc3)nn12` [Example 35, 6-Phenoxy-imidazo[1,2-b]pyridazine-3-carboxylic acid phenylamide] stands 120 nM; under `COc1ccc(NC(=O)c2cnc3ccc(NCc4ccc(F)cc4)nn23)cc1` [Example 11, 6-(4-Fluoro-benzylamino)-imidazo[1,2-b]pyridazine-3-carboxylic acid (4-methoxy-phenyl)-amide], 80 nM.
For `O=C(Nc1cnc2ccc(NCc3ccc(F)cc3)nn12)c1ccc(O)cc1` [Example 101, N-[6-(4-Fluoro-benzylamino)-imidazo[1,2-b]pyridazin-3-yl]-4-hydroxy-benzamide], the IC50 stood at 410 nM.
In the case of `O=C(Nc1ccccc1)c1cnc2ccc(NCc3ccc(Cl)c(Cl)c3)nn12` [Example 18, 6-(3,4-Dichloro-benzylamino)-imidazo[1,2-b]pyridazine-3-carboxylic acid phenyl-amide], the IC50 is 60 nM.
Regarding `COc1ccc(CNc2ccc3ncc(C(=O)Nc4cccc(C(=O)O)c4)n3n2)cc1` [Example 31, 3-{[6-(4-Methoxy-benzylamino)-imidazo[1,2-b]pyridazine-3-carbonyl]-amino}-benzoic acid], the IC50 was 7380 nM.
Regarding `CCNC(=O)c1cnc2ccc(NCc3ccc(Cl)c(Cl)c3)nn12` [Example 25, 6-(3,4-Dichloro-benzylamino)-imidazo[1,2-b]pyridazine-3-carboxylic acid ethylamide], 2200 nM corresponded to half-maximal inhibition (IC50).
The result for `CCC(=O)Nc1cnc2ccc(NCc3ccc(F)cc3)nn12` [Example 89, N-[6-(4-Fluoro-benzylamino)-imidazo[1,2-b]pyridazin-3-yl]-propionamide] reads 19000 nM.
`O=C(Nc1ccccc1)c1cnc2ccc(Oc3ccc(F)cc3)nn12` [Example 36] displayed an IC50 of 2260 nM. Compared with the last compound, the IC50 is about 8.4-fold lower.
With `O=C(Nc1cnc2ccc(Oc3ccccc3)nn12)c1ccccc1` [Example 98, N-(6-Phenoxy-imidazo[1,2-b]pyridazin-3-yl)-benzamide], the IC50 amounted to 4650 nM. This IC50 lies about 2.1-fold higher than the previous one.
Turning to `Cc1cc(NCc2ccc(Cl)c(Cl)c2)nn2c(C#Cc3ccccc3)cnc12` [Example 71, (3,4-Dichloro-benzyl)-(8-methyl-3-phenylethynyl-imidazo[1,2-b]pyridazin-6-yl)-amine], the IC50 was 5190 nM. This IC50 and that of the compound before are within 1.5-fold of each other.
Regarding `COc1ccc(NC(=O)c2cnc3ccc(NCc4ccco4)nn23)cc1OC` [Example 15, 6-[(Furan-2-ylmethyl)-amino]-imidazo[1,2-b]pyridazine-3-carboxylic acid (3,4-dimethoxy-phenyl)-amide], the IC50 is 4030 nM.
`CC(=O)c1cccc(NC(=O)c2cnc3ccc(NCc4ccc(Cl)c(Cl)c4)nn23)c1` [Example 22, 6-(3,4-Dichloro-benzylamino)-imidazo[1,2-b]pyridazine-3-carboxylic acid (3-acetylphenyl)amide] showed an IC50 of 33000 nM.
Turning to `COc1ccc(CNc2ccc3nc(C)c(C(=O)Nc4ccccc4)n3n2)cc1` [Example 81, 6-(4-Methoxy-benzylamino)-2-methyl-imidazo[1,2-b]pyridazine-3-carboxylic acid phenylamide], half-maximal inhibition (IC50) required 8870 nM.
`O=C(Nc1ccccc1)c1cnc2ccc(-n3cccc3)nn12` [Example 37, 6-Pyrrol-1-yl-imidazo[1,2-b]pyridazine-3-carboxylic acid phenylamide] yielded an IC50 of 530 nM. Compared with the last compound, the IC50 is about 17-fold lower.
The compound `CN(Cc1ccc(Cl)c(Cl)c1)c1ccc2ncc(C(=O)Nc3ccccc3)n2n1` [Example 42, 6-[(3,4-Dichloro-benzyl)-methyl-amino]-imidazo[1,2-b]pyridazine-3-carboxylic acid phenylamide] displayed an IC50 of 60 nM.
As to `Cc1ccc(CNc2nn3c(C(=O)Nc4ccccc4)cnc3cc2C)cc1F` [Example 60, 6-(3-Fluoro-4-methyl-benzylamino)-7-methyl-imidazo[1,2-b]pyridazine-3-carboxylic acid phenylamide], it took 60 nM to reach half-maximal inhibition (IC50).
For the compound `CCOC(=O)c1cccc(NC(=O)c2cnc3c(C)cc(NCc4ccc(OC)cc4)nn23)c1` [Example 64, 3-{[6-(4-Methoxy-benzylamino)-8-methyl-imidazo[1,2-b]pyridazine-3-carbonyl]-amino}-benzoic acid ethyl ester], the IC50 is 160 nM.

For the origin of these results see US20110046127A1, “Imidazopyridazines for Use as Protein Kinase Inhibitors” (priority 2007, published 2011).
